Assay results taken from patent publication US9139546B2, “Tri-aryl/heteroaromatic cannabinoids and use thereof” (priority 2007, dated 2015).

How the values were obtained:
human CB2 receptor = human CB2 receptor (Homo sapiens (Human), UniProt P34972); experiment: Receptor binding assay, CB2 ([3H]CP 55,940 displacement); details: for Ki: as repeated in the anti-inflammatory table, read-out: CB-2 Ki; for CB1/CB2: ratio of Ki CB-1 to Ki CB-2
Method: (§1) The assays were carried out in 96 well plates obtained from Millipore, Inc. fitted with glass fiber filters (hydrophilic, GFC filters) having a pore size of 1.2μ. The filters were soaked with 0.05% polyethyleneimine solution and washed 5× with deionized water prior to carrying out the assays. The filtrations were carried out on a 96 well vacuum manifold (Millipore Inc.), the filters punched out with a pipette tip directly into scintillation vials at the end of the experiment and vials filled with 5 ml scintillation cocktail Ecolite (+) (Fisher Scientific). Counting was carried out on a Beckmann Scintillation Counter model LS6500. Drug solutions were prepared in DMSO and the radioligand was dissolved in ethanol.
(§2) 50 mM TRIS-HCl, 5 mM MgCl2, 2.5 mM EDTA, 0.5 mg/ml fatty acid free bovine serum albumin, pH 7.4.
(§3) The membranes were filtered and the filters washed 7× with 0.2 ml ice-cold incubation buffer and allowed to air dry under vacuum.
(§4) Final data are presented as Ki±S.E.M. of n≧3 experiments.

CXCL-8 = CXCL-8 level in supernatant of TNF-α treated A549 cells (multiplex bead immunoassay); format: cell-based, human; details: A549, 10 ng/mL TNF-α, 18 hours
Method: (§5) Human lung adenocarcinoma cell line A549 (alveolar type II epithelial-like) cells (ATCC, Manassas, Va.) were maintained in growth media consisting of DMEM supplemented with 10% heat-inactivated fetal calf serum, 2 mM L-glutamine, 100 U/ml penicillin, and 100 μg/ml streptomycin.
(§6) One day prior to treatment, A549 cells were seeded in 24 well culture plates at 6×10^4 cells/well in 1 mL of DMEM containing 1% FCS. On the day of treatment, media was aspirated. Following PBS wash, 1 mL of media containing 1% FCS, 10 ng/mL TNF-α, and varying concentrations of test compounds was added. Samples were collected at 18 hours and immediately transferred to −80° C. until the day of analysis.
(§7) Levels of IL-6 and CXCL-8 were measured in cell culture supernatant using the Multiplex Bead Immunoassay Kit (Biosource, Camarillo, Calif.) paired with the Luminex® 200™ System. Standard solutions were prepared by serial dilution in a 50% media, 50% buffer solution so that they were in the same matrix as the samples. Standards and samples were mixed with a solution containing beads coated with capture antibodies specific for IL-6 and CXCL-8. Each capture antibody is bound to a specific bead population with a known internal fluorescence. The Luminex system can differentiate between internal fluorescence of beads allowing detection of multiple analytes in the same well. Following overnight incubation to allow complexation of protein with capture antibodies, wells were washed and beads resuspended in assay buffer. Biotinylated reporter antibodies specific for IL-6 and CXCL-8 were added and incubated for 1.5 hours. Unbound antibodies were removed by washing, and Streptavidin-Phycoerythrin (PE) was added and incubated 30 minutes. Streptavidin binds to biotin on the reporter antibodies. Unbound reagents were removed and samples were analyzed by the Luminex system. This system utilizes a flow cytometry system and lasers capable of exciting the internal dyes of the beads and PE. The machine separates signals from beads with different internal fluorescence and measures fluorescence intensity from PE bound to these beads through protein-antibody interactions. This fluorescence intensity is reported as the median of 100 beads per cytokine in each well. Concentrations were interpolated by fitting fluorescence intensity from unknowns to the standard curves.
(§8) Cells treated with the pro-inflammatory cytokine TNF-α increase production of IL-6 and CXCL-8 when compared to cells not treated with TNF-α. Cells treated with anti-inflammatory compounds block the inflammatory effect of TNF-α and produce IL-6 and CXCL-8 levels similar to cells that are not treated with TNF-α.

NF-κB = NF-κB SEAP reporter assay in TNF-α treated A549 cells; format: cell-based; details: Homo sapiens, read-out: NF-κB Reduction; for inhibition at 0.1 µM: A549, 18 h
Method: as §5
The plasmid pNF-κB-SEAP-NPT was kindly provided by Dr. Y. S. Kim of the Seoul National University. This plasmid contains a secreted alkaline phosphatase (SEAP) reporter gene coupled with the κB response element. Upon activation, NF-κB translocates to the nucleus and binds to the κB response element causing transcriptional activation. This activation drives production of the SEAP reporter, which is secreted into the cell culture supernatant where it can be measured. The neomycin phosphotransferase (NPT) region of the plasmid provides resistance to the antibiotic G-418.
A549 cells were stably transfected with pNF-κB-SEAP-NPT using GeneJammer Transfection Reagent (Stratagene, La Jolla, Calif.) per manufacturer's protocol. G-418 (500 μg/ml) was added 24 hrs after transfection to select for stable transfection of NF-κB. Resistant colonies were selected and maintained in growth media supplemented with 500 μg/ml G-418.
Previous experiments have shown A549 cells respond to the pro-inflammatory cytokine TNF-α by activation of the pro-inflammatory transcription factor, NF-κB. This effect is dose dependent with the maximum effect seen at 10 ng/mL TNF-α. Compounds with anti-inflammatory activity can be used to inhibit this activation of NF-κB.
One day prior to treatment, transfected cells were seeded in 24 well culture plates at 6×10^4 cells/well in 1 mL of DMEM containing 1% FCS. On the day of treatment, media was aspirated. Following PBS wash, 1 mL of media containing 1% FCS, 10 ng/mL TNF-α, and varying concentrations of test compounds was added. Cell culture supernatant was collected at 18 hours. SEAP production was measured in 50 μL of supernatant using the Great EscAPe™ chemiluminescence kit (Clontech, Mountain View, Calif.). Briefly, samples were incubated at 65° C. for 30 minutes to inactivate endogenous alkaline phosphate. Following a 5-minute equilibration with assay buffer, chemiluminescent substrate and enhancer was added. Chemiluminescence was measured after 10 minutes. Higher levels of chemiluminescence result from increased SEAP production and correspond to NF-κB activity. Compounds capable of inhibiting NF-κB activation due to TNF-α are determined by a reduction in chemiluminescence values when cells are treated with TNF-α and test compound versus cells treated with TNF-α alone.

CCL-2 = CCL-2 reduction in TNF-α treated A549 cells; format: cell-based, human; details: A549, 10 ng/mL TNF-α
human CB1 receptor = human CB1 receptor (Homo sapiens (Human), UniProt P21554); experiment: Receptor binding assay, CB1 ([3H]CP 55,940 displacement); details: as repeated in the anti-inflammatory table; read-out: CB-1 Ki
Chain of human CB1 receptor (P21554 whole entry): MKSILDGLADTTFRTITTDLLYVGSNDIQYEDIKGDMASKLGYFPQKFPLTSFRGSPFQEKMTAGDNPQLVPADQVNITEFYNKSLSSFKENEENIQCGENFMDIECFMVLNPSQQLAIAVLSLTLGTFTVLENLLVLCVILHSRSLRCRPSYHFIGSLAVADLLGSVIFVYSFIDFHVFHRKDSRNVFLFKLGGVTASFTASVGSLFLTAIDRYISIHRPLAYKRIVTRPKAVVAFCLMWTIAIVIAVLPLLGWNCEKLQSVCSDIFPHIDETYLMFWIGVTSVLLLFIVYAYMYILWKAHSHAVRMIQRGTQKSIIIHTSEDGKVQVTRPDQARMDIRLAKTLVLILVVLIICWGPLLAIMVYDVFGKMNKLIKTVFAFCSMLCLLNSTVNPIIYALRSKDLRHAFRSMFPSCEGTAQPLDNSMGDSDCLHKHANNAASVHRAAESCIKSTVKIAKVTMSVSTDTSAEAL
Method: as §1, §2, §3, §4

[1] = test system: BxPC-3 pancreatic cancer cells; experiment: Anti-cancer activity, WST-8 cell viability, BxPC-3; format: cell-based; details: Homo sapiens, BXPC-3, 18 h, read-out: BxPC-3 pancreatic EC50 (μM)
Method: (§9) A representative group of compounds (shown below) was tested for anti-cancer activity against human lung (DMS-135 and H69AR), prostate (DU-145), colorectal (HCT-15), and pancreatic (BxPC-3) cancer cell lines using the methodology described below, providing results shown in Table 3.
(§10) Human cancer cells DU-145, DMS-135, H69AR, HCT-15, and BxPC-3 (American Type Culture Collection, ATCC) were cultured in supplemented media according to the recommendations of the supplier. Cells lines were plated in 96-well flat-bottom plates at 70% confluency in a 100 μl total volume of supplemented media as indicated, and incubated overnight at 37° C. to allow for adherence. The cultures were inoculated with escalating amounts of drug and cell death was analyzed at 18 hours, using the BioTek Synergy 2 Multidetection Microplate Reader. The percentage of viable cells present in the culture at each time point was calculated by comparing the absorbance value at 450 nm from the WST-8 assay (Pojindo Molecular Technologies) for each condition with untreated control cells.

[2] = test system: DMS-135 lung cancer cells; experiment: Anti-cancer activity, WST-8 cell viability, DMS-135; format: cell-based; details: Homo sapiens, 18 h, read-out: DMS-135 lung EC50 (μM)
Method: as §9, §10

[3] = test system: DU-145 prostate cancer cells; experiment: Anti-cancer activity, WST-8 cell viability, DU-145; format: cell-based; details: Homo sapiens, DU-145, 18 h, read-out: DU-145 prostate EC50 (μM)
Method: as §9, §10

IL-6 = IL-6 level in supernatant of TNF-α treated A549 cells (multiplex bead immunoassay); format: cell-based, human; details: 100 nM compound; A549, 10 ng/mL TNF-α, 18 hours
Method: as §5, §6, §7, §8

H69AR lung cancer cells = experiment: Anti-cancer activity, WST-8 cell viability, H69AR; format: cell-based; details: Homo sapiens, 18 h, read-out: H69AR lung EC50 (μM)
Method: as §9, §10

[4] = test system: HCT-15 colorectal cancer cells; experiment: Anti-cancer activity, WST-8 cell viability, HCT-15; format: cell-based; details: Homo sapiens, HCT-15, 18 h, read-out: HCT-15 colorectal EC50 (μM)
Method: as §9, §10

SMILES	Ki (human CB2 receptor)	CB1/CB2 (human CB2 receptor)	CXCL-8 Reduction (CXCL-8; 100 nM compound)	inhibition at 0.1 µM (NF-κB)	CCL-2 Reduction (CCL-2; 100 nM compound)	Ki (human CB1 receptor)	CXCL-8 Reduction (CXCL-8; 1 nM compound)	CXCL-8 Reduction (CXCL-8; 10 nM compound)	inhibition at 0.001 µM (NF-κB; 1 nM compound, A549, 10 ng/mL TNF-α, 18 hours)	inhibition at 0.01 µM (NF-κB; 10 nM compound, A549, 10 ng/mL TNF-α, 18 hours)	CCL-2 Reduction (CCL-2; 10 nM compound)	EC50 [1]	EC50 [2]	EC50 [3]	IL-6 Reduction (IL-6)	EC50 (H69AR lung cancer cells)	EC50 [4]
Cc1cccc(-c2c(O)cc(C(=O)c3ccccc3)cc2O)c1 [Compound 26, (2,6-Dihydroxy-3′-methyl-biphenyl-4-yl)-phenyl-methanone]	159 ± 2.92 nM	6.18	59 ± 5%	67 ± 9%	61 ± 19%	983 nM	–	–	–	–	–	–	–	–	–	–	–
COc1cc(C(=O)c2ccccc2)cc(O)c1-c1cccc(C)c1 [Compound 27, (2-Hydroxy-6-methoxy-3′-methyl-biphenyl-4-yl)-phenyl-methanone]	225 nM	4.44	–	–	–	> 1000 nM	50%	27 ± 15%	45%	38 ± 10%	32 ± 9%	–	–	–	–	–	–
COc1cc(C(=O)c2ccccc2)cc(O)c1-c1cc(Cl)cc(Cl)c1 [Compound 29, (3′,5′-dichloro-2-hydroxy-6-methoxybiphenyl-4-yl)(phenyl)methanone]	4.77 nM	209	<10%	50%	–	> 1000 nM	–	–	–	–	–	9.3 µM	2.8 µM	1.5 µM	<5%	1.3 µM	2.9 µM
